# Experiments:
# Assay type in all cases: cell-based, human
# HL60 cells [1] = experiment: Mitochondrial superoxide / ROS in HL60 cells (MitoSOX assay)
# Protocol: (§1) Mitochondrial membrane potential and superoxide detection Cells (10e6 cells per assay) were treated with a concentration of WIN-55 for 15, 30, 45 and 60 min at 37° C. Fluorochromes 10 μM TMRM [(tetramethylrhodamine-ethyl-ester-perchlorate), Santa Cruz Biotechnology Inc.] to detect membrane potential, or 5 μM MitoSOX [Molecular Probes (Invitrogen)] to detect mitochondrial superoxide, were added for the last 15 min of treatment. CCCP (uncoupler of oxidative phosphorylation) or H2O2 (oxidant agent) was used as a positive control of the techniques respectively (Labbe et al., 2008). The fluorescence detection of TMRM was measured for flow citometry. Fluorescent intensity was quantified and analyzed using Infinicyt™ Software (Cytognos, Salamanca, Spain).
# The MitoSOX signal was detected using a ‘Fluoroscan’ multi-well plate reader (Thermo Labsystems, Thermo Scientific), excitation/emission maxima of 543/593 nm.
# To delve into the processes that participate in cannabinoid-induced apoptosis, we evaluated the potential of mitochondrial membrane potential in HL60 cells after treatment with WIN-55, at indicated times, using TMRE assay by flow citometry. We observed that cannabinoids induced a drop of Δψm in HL60 cells (FIG. 20a). The loss of potential started as early as 15 min after exposure to the cannabinoid, and continued decreasing over time. […]
# HL60 cells [2] = experiment: Western blot time course of apoptotic proteins in HL60 cells
# Protocol: Protein analyses were performed by Western blot in several sets of assays: expression pattern of CBs-receptors in AML cell lines and primary cells, and time course after treatment with cannabinoids in AML cell lines.
# Cells were solubilized with ice-cold lysis buffer containing 2% ASB-14 (CalbioChem, San Diego, Calif., USA), 1% Nonidet P-40 (Ipegal®), 137 mM NaCl, 20 mM Tris-HCl pH 7.5 at 4° C. (all from Sigma-Aldrich), 2 mM Na3VO4, 20 mM NaF (New England BioLabs Inc., Ipswich, Mass., USA), 2 mM DTT (AppliChem, Darmstadt, Germany), protease inhibitor cocktail (Roche Diagnostics GmbH, Mannheim, Germany), and 10 ul Nuclease Mix (Amersham GE Healthcare, Uppsala, Sweden). Insoluble materials were removed by centrifugation at 13,000×g for 15 min at 4° C. Protein content was determined by Pierce® Microplate BCA Protein Assay kit-Reducing Agent Compatible (Thermo Fisher Scientific).
# (§2) Extracted proteins (15-25 ug/well) were separated by sodium dodecyl sulfate-polyacrylamide gel electrophoresis (SDS/PAGE) in pre-cast polyacrylamide gels AnykD (Bio-Rad Laboratories, Hercules, Calif., USA) under reducing and denaturing conditions. Electrophoretic run was performed at a constant current of 15 mA per gel in a Mini-Protean® Tetra Cell (Bio-Rad Laboratories) and were electrophoretically transferred onto PVDF membranes using Trans-Blot® Turbo™ System (Bio-Rad Laboratories). Blocking was performed with 2% bovine serum albumin [(BSA), Santa Cruz Biotechnology] in Tween-Tris buffer saline (TTBS). Membranes were incubated overnight at 4° C. with corresponding primary antibody in TTBS.
# Detection was performed using Western Blotting Luminol Reagent (Santa Cruz Biotechnology).
# As in the case of MM cells, the antiproliferative effect of cannabinoids in AML is mediated by apoptotic mechanisms. […] Next, we evaluated Casp-3 activation using an antibody that recognizes the active forms of Casp-3, this is, the […]. […]
# HL60 cells [3] = experiment: Western blot of ER-stress regulator proteins in HL60 cells; conditions: HL60, WIN-55 50 uM
# Protocol: FIG. 19. […] Expression analysis by Western blot of regulator proteins of ER-stress in HL60 cells treated with WIN-55 50 uM.
# as §2
# U266 cells = experiment: Western blot of ER-stress regulator proteins in U266 cells; conditions: U266, WIN-55 50 uM
# Protocol: Samples (15-25 ug/lane) were subjected to SDS/PAGE in pre-cast polyacrylamide gels AnykD (Bio-Rad Laboratories, Hercules, CA, USA) under reducing and denaturing conditions. Electrophoretic run was performed at a constant current of 15 mA per gel in a Mini-Protean® Tetra Cell (Bio-Rad Laboratories). Once proteins were separated by electrophoresis, were transferred onto PVDF membranes using Trans-Blot® Turbo™ System (Bio-Rad Laboratories). Electrotransference was conducted at constant amperage of 1.2 mA and at up to 25 V of voltage. The blotted membranes were then blocked with 2% bovine serum albumin [(BSA), Santa Cruz Biotechnology] in Tween-Tris buffer saline (TTBS) for 30 min with gentle agitation, and incubated overnight at 4° C. with corresponding primary antibody in TTBS. After twice washing with TTBS, membranes were incubated for 1-2 h at room temperature with suitable conjugated-HRP secondary antibody, and subjected to chemiluminescence detection using Western Blotting Luminol Reagent (Santa Cruz Biotechnology). Loading controls were carried out with an anti-beta-actin and anti-beta-tubulin antibodies (Sigma-Aldrich). […]
# Cannabinoids attenuate the response to ER-stress in myelomatous cells. […] To test the effect of cannabinoids on ER-stress we analyzed the expression profile of ER-stress related proteins in myelomatous cells.
# HL60 cells [4] = experiment: Mitochondrial membrane potential in HL60 cells (TMRE, flow cytometry)
# Protocol: as §1
# To delve into the processes that participate in cannabinoid-induced apoptosis, we evaluated the potential of mitochondrial membrane potential in HL60 cells after treatment with WIN-55, at indicated times, using TMRE assay by flow citometry. We observed that cannabinoids induced a drop of Δψm in HL60 cells (FIG. 20a). The loss of potential started as early as 15 min after exposure to the cannabinoid, and continued decreasing over time. Also the ROS increase by MitoSOX assay was observed, specially in HL60 cells after exposure to WIN-55 (FIG. 20b).
compound,measurement,setting,value
"CS(=O)(=O)O.Cc1c(C(=O)c2cccc3ccccc23)c2cccc3c2n1[C@H](CN1CCOCC1)CO3 [WIN-55, (R)-(+)-[2,3-dihydro-5-methyl-3-(4-morpholinylmethyl)-pyrrolo-[1,2,3]-1,4-benzoxazin-6-yl]-1-naphthalenylmethanone mesylate]",ROS by MitoSOX assay,HL60 cells [1],increase
same,full-length PARP,"HL60 cells [2]; HL60, WIN-55 50 uM, time course",decrease
same,85 kDa fragment of PARP,"HL60 cells [2]; HL60, time course",increase
same,expression of the active 12 kDa-cleaved form of Casp-3,"HL60 cells [2]; HL60, time course",increased over time
same,ER-stress in AML cells,HL60 cells [3],increase the ER-stress
same,"response to ER-stress: expression of CHOP, ATF-4, p-IRE1",U266 cells,attenuates the response to ER-stress
same,time after exposure at which the loss of potential started,HL60 cells [4]; HL60,15 min
same,mitochondrial membrane potential (Δψm),"HL60 cells [4]; HL60, TMRE, flow cytometry",drop of Δψm
